Experimental data reported in PubChem BioAssay AID328 (DTP/NCI, 2004).
Where “and” joins values, the source holds several entries; their conditions need not be identical. Equal entries are not always repeated. Inconclusive results and toxic doses are left out.

Test system: BDF1 mice, P388 leukemia ip, median survival T/C
Assay: NCI In Vivo Anticancer Drug Screen. Data for tumor model P388 Leukemia (intraperitoneal) in B6D2F1 (BDF1) mice
Conditions: endpoint: median survival time, higher = longer survival
In short: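 Mice carrying the transplantable tumour receive compound or vehicle. Survival is followed in each arm, and the treated measure is divided by the vehicle measure.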

[1] = dose: 50.0 mg/kg/injection, schedule: Q04DX003 (ip), vehicle: saline with Tween-80
[2] = dose: 100.0 mg/kg/injection, schedule: Q04DX003 (ip), vehicle: saline with Tween-80
[3] = dose: 200.0 mg/kg/injection, schedule: Q04DX003 (ip), vehicle: saline with Tween-80
[4] = dose: 25.0 mg/kg/injection, schedule: Q04DX003 (ip), vehicle: saline with Tween-80
[5] = dose: 100.0 mg/kg/injection, schedule: Q01DX009 (ip), vehicle: Klucel (hydroxypropylcellulose) (HPC)
[6] = dose: 100.0 mg/kg/injection, schedule: Q04DX003 (ip), vehicle: Klucel (hydroxypropylcellulose) (HPC)
[7] = dose: 200.0 mg/kg/injection, schedule: Q01DX009 (ip), vehicle: Klucel (hydroxypropylcellulose) (HPC)
[8] = dose: 200.0 mg/kg/injection, schedule: Q04DX003 (ip), vehicle: Klucel (hydroxypropylcellulose) (HPC)
[9] = dose: 400.0 mg/kg/injection, schedule: Q04DX003 (ip), vehicle: Klucel (hydroxypropylcellulose) (HPC)
[10] = dose: 50.0 mg/kg/injection, schedule: Q01DX009 (ip), vehicle: saline with Tween-80
[11] = dose: 100.0 mg/kg/injection, schedule: Q01DX009 (ip), vehicle: saline with Tween-80
[12] = dose: 200.0 mg/kg/injection, schedule: Q01DX009 (ip), vehicle: saline with Tween-80
[13] = dose: 50.0 mg/kg/injection, schedule: Q01DX009 (ip), vehicle: saline
[14] = dose: 400.0 mg/kg/injection, schedule: Q04DX003 (ip), vehicle: saline with Tween-80
[15] = dose: 50.0 mg/kg/injection, schedule: Q04DX003 (ip), vehicle: saline

## CCOC(=O)c1c(NC(=O)C(F)(F)F)[nH]c(SSc2[nH]c(NC(=O)C(F)(F)F)c(C(=O)OCC)c2C(=O)OCC)c1C(=O)OCC
dose: 1.0 mg/kg/injection, schedule: Q01DX009 (ip), vehicle: water
  T/C: 111 % of control
dose: 2.0 mg/kg/injection, schedule: Q01DX009 (ip), vehicle: water
  T/C: 90 % of control
dose: 4.0 mg/kg/injection, schedule: Q01DX009 (ip), vehicle: water
  T/C: 104 % of control
dose: 8.0 mg/kg/injection, schedule: Q01DX009 (ip), vehicle: water
  T/C: 104 % of control
[1]
  T/C: 106 % of control
[2]
  T/C: 117 % of control
[3]
  T/C: 106 % of control

## CN1CCC(S)(S)CC1
dose: 12.5 mg/kg/injection, schedule: Q04DX003 (ip), vehicle: saline with Tween-80
  T/C: 100 % of control
[4]
  T/C: 100 % of control
[1]
  T/C: 109 % of control

## CCOC(=O)CSc1cc(C)c2c(N)c(C(=O)OCC)sc2n1
dose: 50.0 mg/kg/injection, schedule: Q01DX005 (ip), vehicle: saline with Tween-80
  T/C: 88 % of control
dose: 100.0 mg/kg/injection, schedule: Q01DX005 (ip), vehicle: saline with Tween-80
  T/C: 91 % of control
dose: 200.0 mg/kg/injection, schedule: Q01DX005 (ip), vehicle: saline with Tween-80
  T/C: 89 % of control

## CCOc1ccc2nc(/C=C\c3cc4c5c(c3)CCCN5CCC4)ccc2c1
[5]
  T/C: 90 % of control
[6]
  T/C: 100 % of control
[7]
  T/C: 109 % of control
[8]
  T/C: 100 % of control
dose: 400.0 mg/kg/injection, schedule: Q01DX009 (ip), vehicle: Klucel (hydroxypropylcellulose) (HPC)
  T/C: 104 % of control
[9]
  T/C: 95 % of control

## OC1CCC2(CC1)Cc1ccccc1C2O (stereo not drawn)
dose: 100.0 mg/kg/injection, schedule: Q01DX001 (ip), vehicle: saline with Tween-80
  T/C: 114 % of control
dose: 200.0 mg/kg/injection, schedule: Q01DX001 (ip), vehicle: saline with Tween-80
  T/C: 119 % of control
dose: 400.0 mg/kg/injection, schedule: Q01DX001 (ip), vehicle: saline with Tween-80
  T/C: 119 % of control

## O=[N+]([O-])c1cccc(N2CN(c3cccc([N+](=O)[O-])c3)CN(c3cccc([N+](=O)[O-])c3)C2)c1
[10]
  T/C: 116 % of control
[11]
  T/C: 106 % of control
[12]
  T/C: 100 % of control

## O=C(/C=C/c1ccc2c(c1)OCO2)c1ccccc1
dose: 50.0 mg/kg/injection, schedule: Q01DX009 (ip), vehicle: Klucel (hydroxypropylcellulose) (HPC)
  T/C: 114 % of control and 105 % of control
[5]
  T/C: 112 % of control and 100 % of control
[6]
  T/C: 104 % of control
[7]
  T/C: 112 % of control
[8]
  T/C: 100 % of control
[9]
  T/C: 95 % of control

## CNc1ccccc1C#N
[5]
  T/C: 100 % of control
[6]
  T/C: 91 % of control
[7]
  T/C: 100 % of control
[9]
  T/C: 91 % of control

## CCN(CC)CC(Cl)CN(CC)CC
[1]
  T/C: 110 % of control
[2]
  T/C: 105 % of control
[3]
  T/C: 100 % of control

## CC(C)OC(=O)C1(N)CCCC1
[13]
  T/C: 109 % of control
dose: 100.0 mg/kg/injection, schedule: Q01DX009 (ip), vehicle: saline
  T/C: 109 % of control
dose: 200.0 mg/kg/injection, schedule: Q01DX009 (ip), vehicle: saline
  T/C: 86 % of control
[14]
  T/C: 113 % of control
dose: 400.0 mg/kg/injection, schedule: Q04DX003 (ip), vehicle: saline
  T/C: 116 % of control
dose: 600.0 mg/kg/injection, schedule: Q04DX003 (ip), vehicle: saline with Tween-80
  T/C: 86 % of control
dose: 600.0 mg/kg/injection, schedule: Q04DX003 (ip), vehicle: saline
  T/C: 91 % of control

## CC(=O)Nc1cscc1NC(C)=O
[10]
  T/C: 110 % of control and 123 % of control
[11]
  T/C: 119 % of control and 123 % of control
[12]
  T/C: 123 % of control

## O=C1N(Cl)C(=O)C(c2ccc(Cl)cc2)(c2ccc(Cl)cc2)N1Cl
dose: 22.0 mg/kg/injection, schedule: Q04DX003 (ip), vehicle: saline with Tween-80
  T/C: 115 % of control
dose: 22.0 mg/kg/injection, schedule: Q04DX003 (ip), vehicle: saline
  T/C: 91 % of control
dose: 25.0 mg/kg/injection, schedule: Q02DX005 (ip), vehicle: Klucel (hydroxypropylcellulose) (HPC)
  T/C: 110 % of control
dose: 25.0 mg/kg/injection, schedule: Q04DX003 (ip), vehicle: Klucel (hydroxypropylcellulose) (HPC)
  T/C: 105 % of control
[4]
  T/C: 104 % of control
dose: 30.0 mg/kg/injection, schedule: Q04DX003 (ip), vehicle: Klucel (hydroxypropylcellulose) (HPC)
  T/C: 100 % of control
dose: 33.0 mg/kg/injection, schedule: Q04DX003 (ip), vehicle: saline with Tween-80
  T/C: 123 % of control
dose: 33.0 mg/kg/injection, schedule: Q04DX003 (ip), vehicle: saline
  T/C: 116 % of control
dose: 38.5 mg/kg/injection, schedule: Q04DX003 (ip), vehicle: saline with Tween-80
  T/C: 120 % of control
dose: 50.0 mg/kg/injection, schedule: Q02DX005 (ip), vehicle: Klucel (hydroxypropylcellulose) (HPC)
  T/C: 124 % of control
dose: 50.0 mg/kg/injection, schedule: Q04DX003 (ip), vehicle: Klucel (hydroxypropylcellulose) (HPC)
  T/C: 96 % of control
[1]
  T/C: 153 % of control
[15]
  T/C: 120 % of control
dose: 60.0 mg/kg/injection, schedule: Q04DX003 (ip), vehicle: Klucel (hydroxypropylcellulose) (HPC)
  T/C: 111 % of control
dose: 75.0 mg/kg/injection, schedule: Q04DX003 (ip), vehicle: saline with Tween-80
  T/C: 150 % of control
dose: 75.0 mg/kg/injection, schedule: Q04DX003 (ip), vehicle: saline
  T/C: 120 % of control
dose: 100.0 mg/kg/injection, schedule: Q02DX005 (ip), vehicle: Klucel (hydroxypropylcellulose) (HPC)
  T/C: 151 % of control
[6]
  T/C: 96 % of control
dose: 100.0 mg/kg/injection, schedule: Q04DX003 (ip), vehicle: saline sonified
  T/C: 160 % of control
[2]
  T/C: 150 % of control and 154 % of control
dose: 132.0 mg/kg/injection, schedule: Q02DX005 (ip), vehicle: Klucel (hydroxypropylcellulose) (HPC)
  T/C: 150 % of control
dose: 132.0 mg/kg/injection, schedule: Q04DX003 (ip), vehicle: saline with Tween-80
  T/C: 112 % of control and 117 % of control
[7]
  T/C: 156 % of control
dose: 200.0 mg/kg/injection, schedule: Q02DX005 (ip), vehicle: Klucel (hydroxypropylcellulose) (HPC)
  T/C: 155 % of control and 171 % of control
[8]
  T/C: 98 % of control
dose: 200.0 mg/kg/injection, schedule: Q04DX003 (ip), vehicle: saline sonified
  T/C: 180 % of control
dose: 300.0 mg/kg/injection, schedule: Q01DX009 (ip), vehicle: Klucel (hydroxypropylcellulose) (HPC)
  T/C: 95 % of control
dose: 300.0 mg/kg/injection, schedule: Q02DX005 (ip), vehicle: Klucel (hydroxypropylcellulose) (HPC)
  T/C: 152 % of control
dose: 300.0 mg/kg/injection, schedule: Q04DX003 (ip), vehicle: Klucel (hydroxypropylcellulose) (HPC)
  T/C: 114 % of control
dose: 380.0 mg/kg/injection, schedule: Q04DX003 (ip), vehicle: Klucel (hydroxypropylcellulose) (HPC)
  T/C: 100 % of control
dose: 400.0 mg/kg/injection, schedule: Q04DX003 (ip), vehicle: saline sonified
  T/C: 190 % of control

## CC/C(=C(\CC)c1ccc(OC)cc1)c1ccc(O)cc1
dose: 100.0 mg/kg/injection, schedule: Q01DX009 (ip), vehicle: saline sonified
  T/C: 105 % of control
[2]
  T/C: 109 % of control
dose: 200.0 mg/kg/injection, schedule: Q01DX009 (ip), vehicle: saline sonified
  T/C: 110 % of control
[3]
  T/C: 104 % of control
dose: 400.0 mg/kg/injection, schedule: Q01DX009 (ip), vehicle: saline sonified
  T/C: 115 % of control
[14]
  T/C: 95 % of control

## N=C(N)SCc1ccc(C(=O)Oc2ccc([N+](=O)[O-])cc2)cc1
dose: 25.0 mg/kg/injection, schedule: Q01DX009 (ip), vehicle: saline
  T/C: 104 % of control
[13]
  T/C: 90 % of control
[15]
  T/C: 110 % of control
dose: 100.0 mg/kg/injection, schedule: Q04DX003 (ip), vehicle: saline
  T/C: 110 % of control

## COc1cc2cc3c4ccc(OC)c(OC)c4cc[n+]3c(C)c2cc1OC (tested in a mixture with another compound)
dose: 20.0 mg/kg/injection, schedule: Q01DX009 (ip), vehicle: saline
  T/C: 164 % of control
dose: 40.0 mg/kg/injection, schedule: Q01DX009 (ip), vehicle: saline
  T/C: 150 % of control and 156 % of control
dose: 80.0 mg/kg/injection, schedule: Q01DX009 (ip), vehicle: saline
  T/C: 168 % of control and 172 % of control
dose: 120.0 mg/kg/injection, schedule: Q01DX009 (ip), vehicle: saline
  T/C: 172 % of control and 185 % of control
